# According to patent US6998258B1, “L-pantolactone-hydrolase and a method for producing D-pantolactone” (BASF Aktiengesellschaft, priority 1999, dated 2006):
# Read-outs that look alike come from different tables or passages of the source. Square brackets hold non-standard residues; d marks the D form. Peptide text beside a SMILES is read from it. * marks the point of attachment. Sta = CC(C)C[C@H](N)[C@@H](O)CC(=O)O; Isovaleryl = CC(C)CC(=O)*
# How the values were obtained:
# [1] = tested on: L-pantolactone hydrolase from Lu5351; assay: Substrate specificity of purified L-pantolactone hydrolase from Lu5351 (HPLC); assay type: biochemical, Agrobacterium radiobacter
# [2] = tested on: L-pantolactone hydrolase from Lu681; assay: Substrate specificity of purified L-pantolactone hydrolase from Lu681 (HPLC); assay type: biochemical, Burkholderia caryophylli
# [3] = tested on: L-pantolactone hydrolase from Burkholderia caryophylli Lu681; assay: Inhibition and activation by added substances, standard assay, Lu681 enzyme; assay type: biochemical
# [4] = tested on: L-pantolactone hydrolase from Agrobacterium radiobacter Lu5351; assay: Inhibition and activation by added substances, standard assay, Lu5351 enzyme; assay type: biochemical
# D-pantolactone hydrolase = settings: cited from earlier work
# [5] = tested on: L-pantolactone hydrolase from Lu681; assay: Optical lipase assay with resorufin ester in microtiter plate; assay type: biochemical, Burkholderia caryophylli; settings: Lu681 enzyme, 60 to 482 U/l
# [6] = tested on: recombinant 681 lactonase; assay type: biochemical, Burkholderia caryophylli
# [7] = substrate 10 mN, 0.1 U/ml enzyme, 150 mM Pipes pH 6.8
# [8] = added substance 1 mM, 150 mM L-pantolactone, 1 h, 30° C., vs no addition
# [9] = substrate 2.5 mN, 0.1 U/ml enzyme, 150 mM Pipes pH 6.8
# [10] = substrate 150 mN, 0.1 U/ml enzyme, 150 mM Pipes pH 6.8
# [11] = added substance 0.1%, vs no addition
# [12] = substrate 50 mN, 0.1 U/ml enzyme, 150 mM Pipes pH 6.8
compound,measurement,setting,value
O=C1Nc2ccccc2C1=O [Isatin],Activity,[1]; [7],(+) ((+): >0.5 U/l)
same,Activity,[2]; [7],+ (+: >5 U/l)
CC(C)CC(=O)N[C@H](C(=O)N[C@H](C(=O)N[C@@H](CC(C)C)[C@@H](O)CC(=O)N[C@@H](C)C(=O)N[C@@H](CC(C)C)[C@@H](O)CC(=O)O)C(C)C)C(C)C [Pepstatin] (Isovaleryl-VV[Sta]A[Sta]-OH),Relative Activity,[3]; [8],117%
[Cl-].[K+] [KCl],Relative Activity,[3],99%
[Cl][Mn][Cl] [MnCl2],Relative Activity,[3],100%
[Cl][Fe][Cl] [FeCl2],Relative Activity,[3],104%
same,Relative Activity,[4],108%
CoCl2,Relative Activity,[3],97%
"CCCCCCCCCCCCOS(=O)(=O)[O-].[Na+] [SDS, Sodium dodecyl sulfate]",Relative Activity,"[3]; added substance 1%, vs no addition",102%
same,Relative Activity,"[4]; added substance 1%, vs no addition, sulfate",74%
O=C1CCCO1 [γ-Butyrolactone],Activity,[1]; pH 6.8,++ (key: ++: >50 U/l; +: >5 U/l; (+): >0.5 U/l; −: <0.5 U/l)
same,Activity,[2]; pH 6.8,+ (key: ++: >50 U/l; +: >5 U/l; (+): >0.5 U/l; −: <0.5 U/l)
[Cu+2] [Cu^2+],inhibition of the enzyme,D-pantolactone hydrolase,inhibited
CO [MeOH],Relative Activity,[3],100%
"CCCCCCCCCCCCOCC(COC(=O)CCCC(=O)Oc1ccc2nc3ccc(=O)cc-3oc2c1)OCCCCCCCCCCCC (racemic) [1,2-O-Dilauryl-rac-glycero-3-glutaric acid resorufin ester]",lipase activity as share of the L-pantolactone hydrolase activity,[5],about 0.05%
same,Activity,[1],(+) (key: ++: >50 U/l; +: >5 U/l; (+): >0.5 U/l; −: <0.5 U/l)
same,Activity,[2],(+) (key: ++: >50 U/l; +: >5 U/l; (+): >0.5 U/l; −: <0.5 U/l)
CC(=O)Oc1cccc2ccccc12 [α-Naphthyl acetate],Activity,[1]; [9],(+) ((+): >0.5 U/l)
same,Activity,[2]; [9],(+) ((+): >0.5 U/l)
CCOC(=O)[C@@H](C)O [Ethyl D(+)-lactate],Activity,[1]; [10],+ (+: >5 U/l)
same,Activity,[2]; [10],+ (+: >5 U/l)
O=S(=O)(F)Cc1ccccc1 [PMSF],Relative Activity,[3],113%
"O=S(=O)(O)c1cc[c]([Hg][Cl])cc1 [pCMBS, p-Chloromercuribiphenylsulfonic [sic] acid]",Relative Activity,[3],108%
same,Relative Activity,[4],112%
"C[C@H](CCC(=O)NCCC[N+](C)(C)CCCS(=O)(=O)[O-])[C@H]1CC[C@H]2[C@@H]3[C@H](O)C[C@@H]4C[C@H](O)CC[C@]4(C)[C@H]3C[C@H](O)[C@]12C [CHAPS, ([3-Cholamidopropyl]-dimethylammonio)-1-propane-sulfonate]",Relative Activity,[3]; [11],104%
same,Relative Activity,[4]; [11],100%
CC1(C)COC(=O)[C@H]1O [S-Pantolactone],Activity,[1]; pH 6.8,++ (key: ++: >50 U/l; +: >5 U/l; (+): >0.5 U/l; −: <0.5 U/l)
same,Activity,[2]; pH 6.8,++ (key: ++: >50 U/l; +: >5 U/l; (+): >0.5 U/l; −: <0.5 U/l)
[Cl-].[Cl-].[Mg+2] [MgCl2],Relative Activity,[3],99%
same,Relative Activity,[4],114%
O=C1CCCCCO1 [ε-Caprolactone],Activity,[1]; pH 6.8,++ (key: ++: >50 U/l; +: >5 U/l; (+): >0.5 U/l; −: <0.5 U/l)
same,Activity,[2]; pH 6.8,++ (key: ++: >50 U/l; +: >5 U/l; (+): >0.5 U/l; −: <0.5 U/l)
O=C1OC(C(O)CO)C(O)C1O [D-Galactono-γ-lactone],Activity,[1]; pH 6.8,++ (key: ++: >50 U/l; +: >5 U/l; (+): >0.5 U/l; −: <0.5 U/l)
same,Activity,[2]; pH 6.8,+ (key: ++: >50 U/l; +: >5 U/l; (+): >0.5 U/l; −: <0.5 U/l)
[Ca+2].[Cl-].[Cl-] [CaCl2],Relative Activity,[3],101%
same,Relative Activity,[4],105%
O=C1CCCCO1 [δ-Valerolactone],Activity,[1]; [12],++ (++: >50 U/l)
same,Activity,[2]; [12],+ (+: >5 U/l)
O=C1O[C@H]([C@@H](O)CO)[C@@H](O)[C@@H]1O [L-Galactono-γ-lactone],Activity,[1]; pH 6.8,++ (key: ++: >50 U/l; +: >5 U/l; (+): >0.5 U/l; −: <0.5 U/l)
same,Activity,[2]; pH 6.8,++ (key: ++: >50 U/l; +: >5 U/l; (+): >0.5 U/l; −: <0.5 U/l)
"O[C@H](CS)[C@H](O)CS (racemic) [DTT, Dithiothreitol]",Relative Activity,[3]; [8],99%
same,Relative Activity,[4]; [8],106%
O=C1Cc2cc(O)ccc2O1 [5-Hydroxy-2-coumaranone],Activity,[2]; [9],+ (+: >5 U/l)
O=C1OC(C(O)CO)C(O)C1O [D-(−)-Gulono-γ-lactone],Activity,[1]; pH 6.8,++ (key: ++: >50 U/l; +: >5 U/l; (+): >0.5 U/l; −: <0.5 U/l)
Cl.N [NH4Cl],Relative Activity,[3],100%
CCCCC1CCCC(=O)O1 (stereo not shown) [δ-Nonalactone],Activity,[1]; pH 6.8,++ (key: ++: >50 U/l; +: >5 U/l; (+): >0.5 U/l; −: <0.5 U/l)
same,Activity,[2]; pH 6.8,+ (key: ++: >50 U/l; +: >5 U/l; (+): >0.5 U/l; −: <0.5 U/l)
[Cl-].[Cl-].[Zn+2] [ZnCl2],Relative Activity,[3],113%
same,Relative Activity,[4],99%
OO [H2O2],Relative Activity,[3],95%
[Cl][Ni][Cl] [NiCl2],Relative Activity,[3],96%
CCOC(=O)C(C)O (stereo not drawn) [Ethyl (L)(−)-lactate],Activity,[1]; [10],++ (++: >50 U/l)
same,Activity,[2]; [10],++ (++: >50 U/l)
CC1(C)COC(=O)C1O [D-Pantolactone],type of inhibition,[6],competitive inhibition
same,Activity,[1]; [10],(+) ((+): >0.5 U/l)
same,Activity,[2]; [10],− (−: <0.5 U/l)
CC1CCC(=O)O1 (stereo not shown) [γ-Valerolactone],Activity,[1]; pH 6.8,++ (key: ++: >50 U/l; +: >5 U/l; (+): >0.5 U/l; −: <0.5 U/l)
same,Activity,[2]; pH 6.8,+ (key: ++: >50 U/l; +: >5 U/l; (+): >0.5 U/l; −: <0.5 U/l)
Triton,Relative Activity,[3],104%
[Cd+2] [Cd^2+],inhibition of the enzyme,D-pantolactone hydrolase,inhibited
"O=C(O)CN(CCN(CC(=O)O)CC(=O)O)CC(=O)O [EDTA, Ethylenediaminetetraacetic acid]",Relative Activity,[3]; [8],97%
same,inhibition of the enzyme,"D-pantolactone hydrolase; U.S. Pat. No. 5,372,940",inhibited
same,Relative Activity,[4]; [8],97%
c1cnc2c(c1)ccc1cccnc12 [o-Phenanthroline],Relative Activity,[3],95%
O=C1CCc2ccccc2O1 [Dihydrocumarin],Activity,[1]; pH 6.8,+ (key: ++: >50 U/l; +: >5 U/l; (+): >0.5 U/l; −: <0.5 U/l)
O=C(O)CC(O)(CC(=O)O)C(=O)O [Citric acid],Relative Activity,"[3]; added substance 30 mM, pH 6.4, vs no addition",97%
CC#N [Acetonitrile],Relative Activity,[3],119%
O=C1OC(C(O)CO)C(O)C1O [L-(+)-Gulono-γ-lactone],Activity,[1]; [10],++ (++: >50 U/l)
same,Activity,[2]; [10],+ (+: >5 U/l)
[Hg+2] [Hg^2+],inhibition of the enzyme,D-pantolactone hydrolase,inhibited
CC(C)O [Isopropanol],Relative Activity,"[3]; added substance 10%, vs no addition",93%
[Cl][Hg][Cl] [HgCl2],Relative Activity,[3],133%
same,Relative Activity,[4],170%
